Data: US8084500B2, “Method of using catalpic acid to treat dyslipidemia” (Nutrition Therapeutics, Inc., priority 2005, dated 2011)
Read-outs that look alike come from different tables or passages of the source. Marks after values point to notes of the source that are not given here.

Legend:
db/db mice [1] = system: db/db mice
Description: Mice were purchased from Harlan (Indianapolis, Ind.). Following an acclimation period of 5 days on regular rodent chow they were fed purified, high fat diets that represented a modification of the AIN-93G rodent diet in which the nutritional requirements, including those for polyunsaturated fatty acids (PUFA), were met or exceeded.
Stock fatty acid solutions, e.g., soybean oil or catalpic acid were kept at −20° C. and nitrogen-purged every time that the bottles were opened. All the experimental diets contained the same amount of energy (isocaloric) and protein (isonitrogenous). To maintain the diets isocalorically, catalpic acid replaced soybean oil in the catalpic acid diet. We utilized male, db/db [BKS.Cg-+Lepr^db/+Lepr^db/OlaHsd (type 2 Diabetic)] mice (n=20) weighing 19.86 g on day 1 of the study. The db/db mice lack the long isoform of leptin receptor and represent a well-established model of type 2 Diabetes and are often utilized to determine the pre-clinical efficacy of antidiabetic drugs. Half of the mice were fed a control and the other half a catalpic acid-supplemented diet (1 g catalpa oil/100 g diet).
(§1) Mice were weighed on a daily basis and examined for clinical signs of disease by blinded observers. Water and feed intake were assessed on a daily basis. Fasting (12 h) glucose and insulin concentrations were determined on days 0, 7, 15, 21 and 28, of the study. Briefly, blood was collected via the caudal vein and placed onto capillary blood collection tubes. Insulin concentrations were determined by using a commercially available insulin enzyme-linked immunosorbent assay (ELISA) (Linco Research, St Charles, Mo.) per manufacturer's instructions. Mice were administered a glucose tolerance test and euthanized by CO2 narcosis on day 28 of the study. For the glucose tolerance test, animals were fasted overnight (12 hours), injected intraperitoneally with D-glucose (2 g/kg body weight) and blood samples were collected via the caudal vein prior to the injection (time 0) and at 15, 30, 60, 90, 120 and 180 minutes following the injection to determine the effect of CAT on the kinetics of glucose normalization.

[2] = system: obese mice fed high-fat diets; conditions: CAT-supplemented high-fat diets
Description: Experiment 3 was conducted as described for Experiments 1 and 2 as indicated below except that determination of plasma lipid concentrations and quantitative real-time PCR were performed.
Serum HDL cholesterol concentrations were determined by using a commercial precipitation assay (Wako Diagnostics, Richmond, Va.) per the manufacturer's instructions.

[3] = system: stearoyl-coenzyme A desaturase (SCD1); conditions: n = 10
Description: (§2) On day 28 or 78 of Experiments 1 and 2, visceral white adipose tissue (WAT) or pancreas samples were collected, stored in RNA later and frozen at −80° C. The dissection of intra-abdominal WAT was performed under magnification. RNA was isolated from WAT and pancreas specimens utilizing RNA isolation columns (Qiagen, Valencia, Calif.) per the manufacturer's instructions. RNA from the WAT was isolated using the Lipid Minikit (Qiagen). RNA was quantified using a μQuant microplate reader (Bio-TEK® Instruments, Inc., Winooski, Vt.). Briefly, total RNA (1 μg) from each sample was used to generate complementary DNA (cDNA) template using the iScript cDNA Synthesis Kit (Bio-Rad, Hercules, Calif.). The total reaction volume was 20 μl. The reaction was incubated as follows in a Tetrad Thermocycler (MJResearch, Waltham, Mass.): 5 minutes at 25° C., 30 minutes at 42° C., 5 minutes at 85° C., hold at 4° C. cDNA products were diluted 1:10 in diethylpyrocarbonate-treated water. Controls were also performed with no RNA template (no template) and omitting the reverse transcriptase enzyme (no RT).
(§3) The PCR primer pairs were designed based on previously published sequences (GenBank) using the Oligo 6 primer design software (Molecular Biology Insights, Cascade, Colo.). The PCR primer pair sequences, annealing temperatures, accession numbers and PCR product lengths are outlined in Table 5. […] Each gene amplicon was purified by using the MiniElute PCR Purification kit (Qiagen). The purified amplicon for each gene was quantified on an agarose gel using a DNA mass ladder. These purified amplicons were further used to optimize the real-time PCR conditions and to generate the standard curves in the real-time PCR assay. Primer concentrations and annealing temperatures were optimized for the iCycler iQ System (Bio-Rad) for each set of primers using the system's gradient protocol.
(§4) Messenger RNA (mRNA) expression of peroxisome proliferator-activated receptor (PPAR) gamma, PPAR alpha, and PPAR delta was determined in adipose tissue. […] Therefore, we also examined the expression of four PPAR alpha-responsive genes in WAT, including acyl-coenzyme A dehydrogenase (ACDH), stearoyl-coenzyme A desaturase (SCD1), enoyl-coenzyme A hydratase (ECH) and carnitine palmitoyl transferase-1 (Cpt-1).
(§5) Transcript expression was examined by real-time, quantitative PCR by using an iCycler iQ System and the iQ SYBR Green Supermix (Bio-Rad). Real-time PCR was used to measure the starting amount of nucleic acid by assaying each unknown starting quantity of cDNA on a 96-well plate. For each gene, the results were calculated as starting quantity of cDNA (picograms) per microgram of RNA.

PPAR alpha = conditions: for PPAR alpha mRNA expression in white adipose tissue: n = 10
Description: as §2, §3, §4, §5

PPAR gamma = conditions: C57BL/6J wild-type mice, 78 days, n = 10
Description: as §2, §3, §4, §5

[4] = system: enoyl-coenzyme A hydratase (ECH); conditions: n = 10
Description: as §2, §3, §4, §5

C57BL6 mice [5] = system: C57BL6 mice
Description: A glucose tolerance test was conducted on day 78 of the experiment. Animals were fasted overnight (14 hours). Mice were injected intraperitoneally with D-glucose (1 g/kg body weight) and blood samples were collected via the tail vein prior to the injection (time 0) and at 15, 30 and 60 minutes following the injection.

db/db mice [6] = conditions: 0-180 min after glucose injection, all time points, FIG. 2B
Description: as §1

C57BL6 mice [7] = conditions: for White adipose tissue, g (abdominal) / Brown adipose tissue, g (interscapular) / Glucose (mg/dL), plasma fasting / Insulin (ng/mL), plasma fasting: C57BL6 mice, day 78; for White adipose tissue, g (abdominal): least squares mean
Text: In Western countries the Metabolic Syndrome or Syndrome X (i.e., diabetes, obesity, cardiovascular disease, hypertension and hyperlipidemia) is on a steady rise. […] A total of forty-seven C57BL6 mice were used in experiment 1. Twenty-five mice were fed a control diet and […] mice were fed a diet supplemented with catalpic acid (0.6 g catalpic acid/100 g food). For the first 32 days of the experiment all diets contained 7% fat, 0.02% total cholesterol, and they obtained 14.5% of calories from fat by replacing catalpic acid with linoleic acid (wt/wt basis) in the control diet.
These diets are defined as regular diets and were formulated to be isocaloric between treatment groups. On day 32 of the experiment, twenty mice within each group were fed high fat diets containing 19.6% fat, 0.2% total cholesterol that obtained 40.1% of calories from fat by replacing catalpic acid with lard (wt/wt basis) in the control high fat diet.
The high fat diets were also formulated to be isocaloric between treatment groups. The remaining mice within each group (n=5) were fed the regular diets. On day 78 of the experiment, mice were killed, and blood was collected and immediately analyzed for fasting glucose concentrations by using the Accu-Check Instant Plus System (Roche Diagnostics Corporation, Indianapolis, Ind.) or stored for subsequent analysis of insulin and lipid concentrations in plasma. Abdominal white adipose tissue and interscapular brown adipose tissue were collected, weighed and stored at −80° C. for RNA analyses. Liver, lungs, kidneys, pancreas and heart were examined for macroscopic abnormalities (gross lesions), fixed in phosphate-buffered formalin (10%) and processed for histological evaluation. All specimens were generally labeled with the following information: 1) mouse number; 2) date collected; 3) experiment number; 4) type of solvent; and 5) tissue type.
Serum insulin concentrations were determined by using commercially available enzyme-linked immunosorbent assay kits (Linco Research, St. Charles, Mo.).

[8] = C57BL/6J wild-type mice, 78 days
[9] = high fat diets, CAT-supplemented
[10] = regular diets, CAT-supplemented

Description for PPAR delta: On day 28 or 78 of Experiments 1 and 2, visceral white adipose tissue (WAT) or pancreas samples were collected, stored in RNA later and frozen at −80° C. The dissection of intra-abdominal WAT was performed under magnification. RNA was isolated from WAT and pancreas specimens utilizing RNA isolation columns (Qiagen, Valencia, Calif.) per the manufacturer's instructions. RNA from the WAT was isolated using the Lipid Minikit (Qiagen). RNA was quantified using a μQuant microplate reader (Bio-TEK® Instruments, Inc., Winooski, Vt.). Briefly, total RNA (1 μg) from each sample was used to generate complementary DNA (cDNA) template using the iScript cDNA Synthesis Kit (Bio-Rad, Hercules, Calif.). The total reaction volume was 20 μl. […]
The PCR primer pairs were designed based on previously published sequences (GenBank) using the Oligo 6 primer design software (Molecular Biology Insights, Cascade, Colo.). […] The purified amplicon for each gene was quantified on an agarose gel using a DNA mass ladder. […]
Messenger RNA (mRNA) expression of peroxisome proliferator-activated receptor (PPAR) gamma, PPAR alpha, and PPAR delta was determined in adipose tissue. Based on the patterns of expression of the nuclear receptors in each tissue, the expression of a relevant panel of responsive genes was evaluated by quantitative real-time PCR. […]

For `CCCC\C=C/C=C/C=C/CCCCCCCC(=O)O` [CAT, catalpic acid], the “difference in WAT weight between groups attributable to catalpic acid” value (db/db mice [1]; day 28) was “over 10%”, the “abdominal WAT weight versus control” value (db/db mice [1]; day 28, FIG. 5) was “significantly lower” and the “body weight versus control” value (db/db mice [1]; high fat diet, FIG. 4A) was “No differences”. The “feed intake versus control” value (db/db mice [1]; high fat diet, FIG. 4B) was “No differences”, the glucose concentrations (db/db mice [1]; high fat diet, day 28 (control 425 mg/dl)) was 290 mg/dL and the “fasting plasma insulin concentrations” value (db/db mice [1]; high fat diet, days 0-28, remained at basal levels, FIG. 3) was “lower than 4 ng/ml”. For the same compound, the “fasting plasma glucose versus high fat control diet” value (db/db mice [1]; high fat diet, days 14, 21 and 28, P<0.05, FIG. 2A) was “lower”, the “PPAR delta mRNA expression in white adipose tissue” value (PPAR delta; C57BL/6J wild-type mice, 78 days, n = 10) was 0.007 picograms of starting cDNA per microgram of white adipose tissue total RNA and the “PPAR delta expression in the pancreas” value (PPAR delta; pancreas of CAT-fed mice, P<0.04) was 0.069. The “plasma triglyceride concentrations versus control high-fat diet” value ([2]; mice, FIG. 6B) was “lower”, the “HDL cholesterol concentrations versus control high-fat diet” value ([2]; obese mice, FIG. 6A) was “greater” and the “Stearoyl CoA Desaturase mRNA expression in white adipose tissue” value [3, 8] was 0.130^a picograms of starting cDNA per microgram of white adipose tissue total RNA. For the same compound, the “Stearoyl CoA Desaturase mRNA expression in white adipose tissue” value ([3]; db/db mice, 28 days) was 0.095^a picograms of starting cDNA per microgram of white adipose tissue total RNA, the “PPAR alpha mRNA expression in white adipose tissue” value (PPAR alpha; [8]) was 0.005^a picograms of starting cDNA per microgram of white adipose tissue total RNA and the “PPAR alpha mRNA expression in white adipose tissue” value (PPAR alpha; db/db mice, 28 days) was 0.0052^a picograms of starting cDNA per microgram of white adipose tissue total RNA. For the same compound, the “pancreatic concentrations of PPAR alpha and its responsive genes” value (PPAR alpha; pancreas of CAT-fed mice) was “unchanged”, the “PPAR gamma mRNA expression in white adipose tissue” value (PPAR gamma) was 0.074 picograms of starting cDNA per microgram of white adipose tissue total RNA and the “Enoyl CoA Hydratase mRNA expression in white adipose tissue” value [4, 8] was 0.0039^a picograms of starting cDNA per microgram of white adipose tissue total RNA. For the same compound, the “Enoyl CoA Hydratase mRNA expression in white adipose tissue” value ([4]; db/db mice, 28 days) was 0.0024 picograms of starting cDNA per microgram of white adipose tissue total RNA, the “glucose tolerance versus control” value (C57BL6 mice [5]; mice fed high fat diets, FIG. 1B) was “normalizes impaired glucose tolerance” and the “glucose tolerance versus control” value (C57BL6 mice [5]; mice fed regular diets, FIG. 1A) was “not different”. For the same compound, the “glucose normalizing ability versus control” value (db/db mice [6]) was “greater”, the “White adipose tissue, g (abdominal)” value (C57BL6 mice [7]; high fat diets from day 32, CAT-supplemented) was 0.607^b g and the “Brown adipose tissue, g (interscapular)” value (C57BL6 mice [7]; [9]) was 0.105 g. For the same compound, the “Glucose (mg/dL), plasma fasting” value (C57BL6 mice [7]; [9]) was 205.43^b mg/dL, the “Insulin (ng/mL), plasma fasting” value (C57BL6 mice [7]; [9]) was 0.730^b ng/mL and the “Brown adipose tissue, g (interscapular)” value (C57BL6 mice [7]; [10]) was 0.169 g. The “Glucose (mg/dL), plasma fasting” value (C57BL6 mice [7]; [10]) was 146.20^b mg/dL, the “Insulin (ng/mL), plasma fasting” value (C57BL6 mice [7]; [10]) was 0.960^b ng/mL and the “White adipose tissue, g (abdominal)” value (C57BL6 mice [7]; [10]) was 0.751^b g. For the same compound, the “fatty liver or enlarged viscera” value (C57BL6 mice [7]; mice fed catalpic acid-supplemented diets, Experiment 1) was “not observed”.
